From paper PMC6102670, “Three New Highly Oxygenated Germacranolides from Carpesium Divaricatum and Their Cytotoxic Activity” (Molecules : A Journal of Synthetic Chemistry and Natural …, 2018)
Like-named read-outs stand apart in the source and are kept apart here.

Key:
Format in all cases: cell-based, Human
Settings in all cases: 4 days incubation, mean ± SD, triplicate
[1] = test system: HeLa cervical cancer cell line; assay: MTT cytotoxicity assay, HeLa cells
Description: (§1) Cell cultures: Human A549, HepG2, and HeLa cell lines from Cancer Institute and Hospital of Chinese Academy of Medical Sciences (Beijing, China), were cultured in Dulbecco’s modified Eagle’s medium (DMEM, Gibco, CA, USA) supplemented with 10% (v/v) fetal calf serum (Gibco, CA, USA), penicillin G (Macgene, China) 100 units mL^−1 and streptomycin (Macgene, China) 100 μg mL^−1, at 37 °C under 5% CO2.
(§2) Cell viability assay: The assay was run in triplicate. In a 96-well plate, each well was plated with 2 × 10^4 cells. After cell attachment overnight, the medium was removed, and each well was treated with 100 μL of medium containing 0.1% DMSO or different concentrations of the test compounds and the positive control cis-platin. The plate was incubated at 37 °C for 4 days in a humidified, 5% CO2 atmosphere. Cytotoxicity was determined using a modified 3-(4,5-dimethylthiazol-2-yl)-2,5-diphenyltetrazolium bromide (MTT) colorimetric assay. After the addition of a 10 μL MTT solution (5 mg/mL), cells were incubated at 37 °C for 4 h. After adding 150 μL DMSO, cells were shaken to mix thoroughly. The absorbance of each well was measured at 540 nm in a Multiscan photometer.
(§3) Statistical analysis: Values were expressed as mean ± SD. Statistical analyses were performed using the Student’s t-test. Differences were considered significant when associated with a probability of 5% or less (p ≤ 0.05).

[2] = test system: A549 lung cancer cell line; assay: MTT cytotoxicity assay, A549 cells
Description: as §1, §2, §3

[3] = test system: Hep G2 hepatocellular cancer cell line; assay: MTT cytotoxicity assay, Hep G2 cells
Description: as §1, §2, §3

Row | Compound | IC50 ([1]; Homo sapiens, 96 h) [µM] | IC50 ([2]; Homo sapiens, 96 h) [µM] | IC50 ([3]; Homo sapiens, HepG2, 96 h) [µM] | IC50 [1] [µM] | IC50 [2] [µM] | IC50 ([3]; read-out: IC50 (μM) HepG2) [µM]
1 | C=C1C(=O)O[C@H]2[C@H]1[C@@H](O)[C@H](OC(=O)CC(C)C)[C@H](C)CCC(=O)[C@](C)(O)[C@@H]2OC(=O)C(C)C [Compound 1, 4β,8α-dihydroxy-5β-isobutyryloxy-9β-3-methylbutyryloxy-3-oxo-germacran-6α, 12-olide] | 29.39 ± 0.17 | > 40 | 17 ± 2.23 | – | – | –
2 | C=C1C(=O)O[C@H]2[C@H]1[C@@H](O)[C@H](OC(=O)CC(C)C)[C@H](C)CCC(=O)[C@](C)(O)[C@@H]2OC(=O)CC(C)C [Compound 2, divarolide E] | 16.8 ± 0.27 | 30.7 ± 0.51 | 7.47 ± 0.21 | – | – | –
3 | C=C(C)C(=O)O[C@H]1[C@H](O)[C@H]2C(=C)C(=O)O[C@@H]2[C@@H](OC(=O)C(C)C)[C@@](C)(O)C(=O)CC[C@H]1C [Compound 3, divarolide F] | > 40 | > 40 | > 40 | – | – | –
4 | C=C1C(=O)OC2C1C(O)C(OC(=O)C(C)CC)C(C)CCC(=O)C(C)(O)C2OC(=O)C(C)CC (stereo not drawn) [Compound 4, divarolide G] | > 40 | > 40 | > 40 | – | – | –
5 | C=C1C(=O)O[C@H]2[C@H]1[C@@H](O)[C@H](OC(=O)CC(C)C)[C@H](C)CCC(=O)[C@](C)(O)[C@@H]2OC(=O)C(C)CC (stereo partly drawn) [Compound 5, 4β,8α-dihydroxy-5β-2-methylbutyryloxy-9β-3-methylbutyryloxy-3-oxo-germacran-7β, 12α-olide] | 11.6 ± 1 | > 40 | 31.64 ± 0.16 | – | – | –
6 | N.N.[Cl][Pt][Cl] [cis-platin, reference compound] | – | – | – | 15.3 ± 0.35 | 7.9 ± 0.23 | 13 ± 1.49
